According to patent publication US20210227854A1, “USE OF D-RIBOSE TO ENHANCE ADAPTATION TO PHYSICAL STRESS” (Bioenergy Life Science, Inc., priority 2014, published 2021):

Assay: Heart rate (HR) during exercise sessions
Assay type: in vivo, human
Details: for HR (bpm): 10 g/day, mean ± SD
Procedure: A high-intensity exercise protocol was designed as a double-blind, crossover study to assess the influence of D-Ribose adaptation to physical stress. Specifically, D-Ribose and a control (Dextrose) were administered on separate subjects at a dosage of ten grams per day (10 g/day). A variety of physiological parameters were measured in the subjects administered D-Ribose (DR) supplementation (i.e., the DR subjects) versus the subjects administered Dextrose (DEX) supplementation (i.e., the DEX subjects). To test D-ribose for adaptation, the twenty-six (26) adult subjects were further divided into two subgroups based on their fitness level (i.e., peak oxygen uptake (VO2 max) results. The first subgroup comprised subjects with higher VO2 max results (i.e., the “Fit Subgroup”) and the second subgroup comprised subjects with lower VO2 max results (i.e., the “Unfit Subgroup”). The Unfit Subgroup consisted of six (6) females and seven (7) males. The average age of the Unfit Subgroup was 27.7±3.4 years and the average peak VO2 of the Unfit Subgroup was 39.9±4.1 mL/kg/min. The Fit Subgroup consisted of four (4) females and nine (9) males. The average age of the Fit Subgroup was 27.6±3.5 year and the average peak VO2 of the Fit Subgroup was 52.2±4.3 mL/kg/min. The protocol of the double-blind crossover study involved an initial baseline assessment, followed by two separate day assessments after consuming either a DR or DEX supplement. Each exercise session entailed measurements of creatine kinase (CK), blood urea nitrogen (BUN), glucose, heart rate (HR), rate of perceived exertion (RPE), and power output (PO) measurements. Each exercise session consisted of six (6) ten-minute intervals of exercise on a cycle ergometer. During each ten-minute interval, the subject cycled for eight (8) minutes at a workload of approximately 60% of the subject's VO2 max, then immediately cycled for an additional two (2) minutes at a workload of approximately 80% VO2 max (approximately one workload above the subject's calculated lactate threshold). Cadence and power output were monitored at ten-minute intervals during each exercise session. At the end of the sixty-minute exercise session, each subject completed a two-minute performance task (time trial). This performance task required the subject to produce as much power as possible during the two-minute interval. Peak power, average power, and percent decline were assessed during this two-minute task trial. Workload for performance task was set at five percent (5%) of the subject's body weight. Heart rate was recorded using a Polar HR monitor. Blood glucose levels were measured using a Bayer glucose monitor. Blood lactate levels were measured by an AccuSport Lactate Analyzer. Creatine kinase and BUN were measured utilizing an Abaxis Piccolo analyzer. Power data from the time trial performance test was assessed with the Sports Medicine Industries (SMI) software package.

SMILES | Average HR (Fit Subgroup) [bpm] | HR (bpm) (Fit Subgroup) | Average HR (Unfit Subgroup) [bpm] | HR (bpm) (Unfit Subgroup)
O=C[C@H](O)[C@@H](O)[C@H](O)[C@H](O)CO [DEX, Dextrose, reference compound] | 153±12 | 152.4 ± 11.7 | 153±17 | 152.0 ± 19.5
O=C[C@H](O)[C@H](O)[C@H](O)CO [DR, D-Ribose] | 153±12 | 152.6 ± 11.9 | 152±20 | 151.5 ± 19.4
